The values that follow come from article PMC7203576 (Frontiers in Microbiology, 2020).

The subject of test [1] is Magnaporthe oryzae Triticum (MoT) isolate BTJP 4 (5).
In test [2] the test system is Magnaporthe oryzae Triticum (MoT) on detached wheat leaves cv. BARI Gom 24 (Prodip). The settings on record: in vivo.
The test system of test [3] is Magnaporthe oryzae Triticum (MoT) conidia. As to conditions: 50 μg/ml.

“And” between values parts separate entries of the source, which are not always exact repeats. Equal values may be shown once. Read-outs that look alike come from different tables or passages of the source. Marks after values point to notes of the source that are not given here. Residues, ends and D or L forms follow the SMILES beside them. *: point of attachment. Tridecanoyl(3R-OH,11-Me) = CCC(C)CCCCCCC[C@@H](O)CC(=O)*

Turning to `CC(=O)c1c(O)c(C(C)=O)c(O)c(C(C)=O)c1O` [2,4,6-Triacetylphloroglucinol (TAPG 3), 2,4,6-Triacetylphloroglucinol, reference compound], the “Activity against MoT” value in test [1] is “Inactive”.

For `CC(=O)c1c(O)cc(O)c(C(C)=O)c1O` [2,4-Diacetylphloroglucinol (DAPG), 2,4-Diacetylphloroglucinol, reference compound], the “Activity against MoT” value in test [1] is on record as “Inactive”.

For the compound `CCCc1c(O)cc(O)c(CCC)c1O` [2,4-Dipropylphloroglucinol (DPPG), 2,4-Dipropylphloroglucinol, reference compound], in test [1], the “Activity against MoT” value is given as “Inactive”.

In the case of `CCCCCCCC/C=C\CCCCCCCc1cc(O)c(C)c(O)c1` [2-Methyl-5-(8Z-heptadecenyl) resorcinol, reference compound], the “Activity against MoT” value in test [1] was “Inactive”.

Turning to `CCCCCCCC/C=C\CCCCCCCc1cc(O)cc(O)c1` [5-(8Z-Heptadecenyl) resorcinol, reference compound], the “Activity against MoT” value in test [1] was “Inactive”.

On to `CCCCCC[C@H]1C(=O)O[C@H](C)[C@H](NC(=O)c2cccc(NC=O)c2O)C(=O)O[C@@H](C)[C@@H]1OC(=O)CC(C)C` [Antimycin-A, reference compound], for which the “Activity against MoT” value in test [1] is “Active”.

With `COC1=CC(=O)C(O)=C(CCCCCCC/C=C\CCCCCCCC2=C(O)C(=O)C=C(OC)C2=O)C1=O` [Ardisiaquinone A, reference compound], in test [1], the “Activity against MoT” value was “Inactive”.

On to `CCC(O)CC1CCC(C(C)C(=O)OC(C)CC2CCC(C(C)C(=O)O)O2)O1` (stereo not drawn) [Bonactin, reference compound], for which the “Activity against MoT” value in test [1] is “Active”.

On to `COc1ccc2c(c[n+](C)c3c4cc5c(cc4ccc23)OCO5)c1OC` [Chelerythrine chloride, reference compound], for which the “Activity against MoT” value in test [1] is listed as “Active”.

Turning to `CC[C@@H](O)C[C@@H]1CC[C@@H](O)[C@@H](C)C(=O)O[C@@H](C)C[C@H]2CC[C@H](O2)[C@H](C)C(=O)O1` [Feigrisolide C, reference compound], the “Activity against MoT” value in test [1] was “Active”.

For the compound `CCC(C)CCCCCCC[C@@H](O)CC(=O)N[C@@H](CC(C)C)C(=O)N[C@@H](CCC(=O)O)C(=O)N[C@@H](CC(C)C)C(=O)N[C@@H](CC(C)C)C(=O)O` (stereo partly drawn) [Gageopeptide A] ({Tridecanoyl(3R-OH,11-Me)}-LELL-OH), the “Average lesion length of wheat blast on detached leaves” value (“Average lesion length of wheat blast” for short) in test [2] worked out at 1.5 ± 0.2 mm. Besides, in test [1], the “Activity against MoT” value was “Active”; the “Minimum inhibitory concentration (MIC) on mycelial growth” value (shortened to “Minimum inhibitory concentration (MIC)”) was 10.0 μg/disk and 10 μg/disk; the “Morphology of treated hyphae (microscopy)” value (from here on “Morphology of treated hyphae”) was “remarkable increase in branch frequency per unit length of hyphae, reduced polar growth, and irregular swelling of the hyphal tips”; the “Mycelial growth inhibition at the MIC” value came to 12.5 ± 1.8%. In addition, the “Percent inhibition of radial growth (PIRG) of mycelia” value (“Percent inhibition of radial growth” for short) in test [1] is reported as 50.5 ± 0.9%. In addition, in test [3] (0 h), the “Germinated conidia (% ± SE)” value was 0 ± 0^f % and the “Major morphological change/developmental transitions in the treated conidia” value is on record as “No germination”. Further, in test [3] (6 h), the “Major morphological change/developmental transitions in the treated conidia” value is reported as “Germinated with a short germ tube”. Further, in test [3] (12 h), the “Major morphological change/developmental transitions in the treated conidia” value is listed as “Normal germ tube”. For the same compound, in test [3] (24 h), the “Major morphological change/developmental transitions in the treated conidia” value is given as “Normal appressoria formed; no mycelial growth took place” and the “Inhibition of mycelial growth from germinated conidia” value was 100%. The “Conidia with normal germ tube” value in test [3] (after 12 h) was 31 ± 1.7%. The “Conidia producing normal appressoria” value in test [3] (after 24 h) is given as 27 ± 1.5%.

Regarding `C[C@@H]1CCC/C=C/C=C/[C@H](O)C[C@@H](O)C/C=C\C=C\[C@@H](O)C/C=C/C=C\C(=O)O1` [Macrolactin A, reference compound], the “Activity against MoT” value in test [1] is reported as “Inactive”.

Consider `C[C@H]1CCC/C=C\C=C\[C@H](O)C[C@@H](O)C/C=C\C=C\[C@@H](OC(=O)CCC(=O)O[C@H]2O[C@@H](CO)[C@H](O)[C@@H](O)[C@@H]2O)C/C=C/C=C\C(=O)O1` [Macrolactin W, reference compound], for which the “Activity against MoT” value in test [1] is given as “Inactive”.

On to `CC(=O)c1c(O)cc(O)cc1O` [Monoacetylphloroglucinol (MAPG), Monoacetylphloroglucinol, reference compound], for which the “Activity against MoT” value in test [1] was “Inactive”.

Consider `C[C@@H]1C/C=C/C=C/C=C/C=C/[C@H](O[C@@H]2O[C@H](C)[C@@H](O)[C@H](N)[C@@H]2O)C[C@@H]2O[C@](O)(C[C@@H](O)C[C@H]3O[C@@H]3/C=C/C(=O)O1)C[C@H](O)[C@H]2C(=O)O` [Natamycin, reference compound], for which, in test [1], the “Activity against MoT” value is recorded as “Inactive”.

Consider `CC[C@H]1/C=C/C=C/C[C@@H](C)[C@H](O)[C@@](C)(O)C(=O)[C@@H](C)[C@H](O)[C@@H](C)C(=O)[C@@H](C)[C@H](O)[C@@H](C)/C=C/C(=O)O[C@@H]2[C@H](C)[C@H](CC1)O[C@@]1(O[C@@H](C[C@@H](C)O)[C@@H](C)CC1=O)[C@H]2C` [Oligomycin B, reference compound], for which the “Activity against MoT” value in test [1] is recorded as “Active”.

For `CC1(C)S[C@@H]2[C@H](NC(=O)Cc3ccccc3)C(=O)N2[C@H]1C(=O)O` [Penicillin G, reference compound], in test [1], the “Activity against MoT” value is on record as “Inactive”.

Regarding `Oc1cc(O)cc(O)c1` [Phloroglucinol (PG), Phloroglucinol, reference compound], the “Activity against MoT” value in test [1] is “Inactive”.

With `CN[C@@H]1C[C@H]2O[C@@](C)([C@@H]1OC)n1c3ccccc3c3c4c(c5c6ccccc6n2c5c31)C(=O)NC4` [Staurosporine, reference compound], the “Activity against MoT” value in test [1] is given as “Active”.

Take Gageopeptide B: in test [2], the “Average lesion length of wheat blast” value turned out to be 1.6 ± 0.2 mm. Further, in test [1], the “Activity against MoT” value was “Active”; the “Minimum inhibitory concentration (MIC)” value is 10.0 μg/disk and 10 μg/disk; the “Morphology of treated hyphae” value is “swelling of hyphal cells, hyper-branching, loss of apical growth, and swelling of hyphal tips”; the “Mycelial growth inhibition at the MIC” value came out at 11.5 ± 1.6%. Besides, the “Percent inhibition of radial growth” value in test [1] was determined as 54.3 ± 3.3%. Besides, in test [3] (0 h), the “Germinated conidia (% ± SE)” value is given as 0 ± 0^f % and the “Major morphological change/developmental transitions in the treated conidia” value is “No germination”. Also, the “Major morphological change/developmental transitions in the treated conidia” value in test [3] (6 h) was “Germinated with a short germ tube”. Further, in test [3] (12 h), the “Major morphological change/developmental transitions in the treated conidia” value was “Deformed germ tube (swollen)”. In addition, the “Major morphological change/developmental transitions in the treated conidia” value in test [3] (24 h) is “No appressoria formed; no mycelial growth took place”. In addition, the “Conidia with abnormally swollen (deformed) germ tubes” value (“Conidia with abnormally swollen” for short) in test [3] (after 12 h) worked out at 51 ± 2.1%.

As to Gageopeptide C, the “Average lesion length of wheat blast” value in test [2] is given as 1.8 ± 0.1 mm. Moreover, in test [1], the “Activity against MoT” value was “Active”; the “Minimum inhibitory concentration (MIC)” value came out at 2.5 μg/disk; the “Morphology of treated hyphae” value was “extensive branching, irregular growth, and swelling in MoT hyphae”; the “Mycelial growth inhibition at the MIC” value amounted to 42.9 ± 1.6%. In test [1], the “Percent inhibition of radial growth” value was 58.1 ± 0.9% and 54.3 ± 1.6% and 49.5 ± 0.9%. Further, in test [3] (0 h), the “Germinated conidia (% ± SE)” value is on record as 0 ± 0^f % and the “Major morphological change/developmental transitions in the treated conidia” value is given as “No germination”. Further, in test [3] (6 h), the “Major morphological change/developmental transitions in the treated conidia” value was “Germinated with a short germ tube”. In addition, the “Major morphological change/developmental transitions in the treated conidia” value in test [3] (12 h) is “Deformed germ tube (swollen)”. The “Major morphological change/developmental transitions in the treated conidia” value in test [3] (24 h) is 30% Normal appressoria and 11% abnormal appressoria (low melanization) formed but no mycelial growth took place. Moreover, the “Conidia with abnormally swollen” value in test [3] (after 12 h) was 10 ± 1.5%. Besides, in test [3] (after 24 h), the “Conidia producing abnormal appressoria (low melanization)” value was 11 ± 0.7% and 11%; the “Conidia producing normal appressoria” value was 30 ± 0.7% and 30%.

For Gageopeptide D, in test [2], the “Average lesion length of wheat blast” value is 1.8 ± 0.1 mm. In addition, in test [1], the “Activity against MoT” value is listed as “Active”; the “Minimum inhibitory concentration (MIC)” value turned out to be 2.5 μg/disk; the “Morphology of treated hyphae” value is “disruption of normal polar growth of hyphae by inducing excessive branching and swelling of hyphal tips”; the “Mycelial growth inhibition at the MIC” value came to 20 ± 1.7%. In addition, in test [1], the “Percent inhibition of radial growth” value is 45.7 ± 1.6% and 30.5 ± 0.9% and 27.6 ± 0.9%. Also, in test [3] (0 h), the “Germinated conidia (% ± SE)” value is given as 0 ± 0^f % and the “Major morphological change/developmental transitions in the treated conidia” value is on record as “No germination”. Besides, the “Major morphological change/developmental transitions in the treated conidia” value in test [3] (6 h) is reported as “Germinated with a short germ tube”. Further, the “Major morphological change/developmental transitions in the treated conidia” value in test [3] (12 h) is “Deformed germ tube (swollen)”. Besides, in test [3] (24 h), the “Major morphological change/developmental transitions in the treated conidia” value is “No appressoria formed; no mycelial growth took place”. For the same compound, the “Conidia with abnormally swollen” value in test [3] (after 12 h) is listed as 25 ± 1.7%.

In the case of Gageostatin A [reference compound], the “Activity against MoT” value in test [1] is recorded as “Inactive”.

For Gageostatin B [reference compound], the “Activity against MoT” value in test [1] was “Inactive”.

On to Gageostatin C [reference compound], for which the “Activity against MoT” value in test [1] was “Inactive”.

As to Gageotetrin A [reference compound], in test [1], the “Activity against MoT” value is reported as “Inactive”.

For Gageotetrin C [reference compound], in test [1], the “Activity against MoT” value is on record as “Inactive”.

In the case of Macrolactin B [reference compound], the “Activity against MoT” value in test [1] is reported as “Active”.

Consider Neomycin [reference compound], for which the “Activity against MoT” value in test [1] is reported as “Active”.

Regarding Oligomycin F [reference compound], in test [1], the “Activity against MoT” value is given as “Active”.
